From US12344603B2 (Genentech, Inc., priority 2020, dated 2025)

target: IRE1α (Homo sapiens (Human), UniProt O75460, D688N); assay: IRE1α TR-FRET competition binding assay (IRE1α HTRF); conditions: TR-FRET competition binding to kinase domain of IRE1α
Outline: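 Kinase domain (0.25 nM) pre-bound to 2 nM Eu anti-His antibody for 1 h at 4° C in HEPES pH 7.5/MgCl2/Brij 35/DTT/gamma globulin buffer, then mixed with compounds and 2 nM Alexa 647 ATP-competitive probe. 1 h at room temperature; probe displacement read as TR-FRET (Ex 347 nm, Em 665/615 nm).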

IRE1α, sequence (O75460 547-977 D688N): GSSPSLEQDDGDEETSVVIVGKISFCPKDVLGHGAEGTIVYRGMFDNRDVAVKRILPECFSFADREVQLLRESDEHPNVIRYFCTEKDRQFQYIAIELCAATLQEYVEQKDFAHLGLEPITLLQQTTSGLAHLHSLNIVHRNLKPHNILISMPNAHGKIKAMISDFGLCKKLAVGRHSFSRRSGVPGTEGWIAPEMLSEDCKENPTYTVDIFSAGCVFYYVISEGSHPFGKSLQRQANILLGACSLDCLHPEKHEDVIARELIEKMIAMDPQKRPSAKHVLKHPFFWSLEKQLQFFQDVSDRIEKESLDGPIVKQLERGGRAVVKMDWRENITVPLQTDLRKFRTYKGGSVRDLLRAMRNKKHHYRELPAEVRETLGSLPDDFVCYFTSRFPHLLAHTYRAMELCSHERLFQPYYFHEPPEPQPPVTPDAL

IC50 | Compound
0.2 nM | CC(C)n1c(=O)c(-c2cc(F)c(NS(=O)(=O)CCC(F)(F)F)c(F)c2)nc2cnc(N[C@H]3CC[C@H](N(C)C)CC3)nc21 [Example 239, N-[4-[2-[[4-(Dimethylamino)cyclohexyl]amino]-8-isopropyl-7-oxo-pteridin-6-yl]-2,6-difluoro-phenyl]-3,3,3-trifluoro-propane-1-sulfonamide]
0.1 nM | CC(C)n1c(=O)c(-c2cc(F)c(NS(=O)(=O)CC3(C(F)(F)F)CC3)c(F)c2)nc2cnc(N[C@H]3CC[C@H](N(C)C)CC3)nc21 [Example 240, N-[4-[2-[[4-(Dimethylamino)cyclohexyl]amino]-8-isopropyl-7-oxo-pteridin-6-yl]-2,6-difluoro-phenyl]-1-[1-(trifluoromethyl)cyclopropyl]methanesulfonamide]
0.2 nM | CC(C)n1c(=O)c(-c2cc(F)c(NS(=O)(=O)CCC(C)(F)F)c(F)c2)nc2cnc(N[C@H]3CC[C@H](N(C)C)CC3)nc21 [Example 241, N-[4-[2-[[4-(Dimethylamino)cyclohexyl]amino]-8-isopropyl-7-oxo-pteridin-6-yl]-2,6-difluoro-phenyl]-3,3-difluoro-butane-1-sulfonamide]
0.1 nM | CCCS(=O)(=O)Nc1c(F)cc(-c2nc3cnc(N[C@H]4CC[C@H](N(C)C)CC4)nc3n(C(C)C)c2=O)cc1F [Example 242, N-[4-[2-[[4-(Dimethylamino)cyclohexyl]amino]-8-isopropyl-7-oxo-pteridin-6-yl]-2,6-difluoro-phenyl]propane-1-sulfonamide]
0.8 nM | CC(C)n1c(=O)c(-c2cc(F)c(NS(=O)(=O)Cc3ccc(Cl)cc3)c(F)c2)nc2cnc(N[C@H]3CC[C@H](N(C)C)CC3)nc21 [Example 243, 1-(4-Chlorophenyl)-N-[4-[2-[[4-(dimethylamino)cyclohexyl]amino]-8-isopropyl-7-oxo-pteridin-6-yl]-2,6-difluoro-phenyl]methanesulfonamide]
0.2 nM | CC(C)n1c(=O)c(-c2cc(F)c(NS(=O)(=O)Cc3ccc(C(F)F)cc3)c(F)c2)nc2cnc(N[C@H]3CC[C@H](N(C)C)CC3)nc21 [Example 244, 1-[4-(Difluoromethyl)phenyl]-N-[4-[2-[[4-(dimethylamino)cyclohexyl]amino]-8-isopropyl-7-oxo-pteridin-6-yl]-2,6-difluoro-phenyl]methanesulfonamide]
0.1 nM | CC(C)n1c(=O)c(-c2cc(F)c(NS(=O)(=O)Cc3ccc(F)cc3)c(F)c2)nc2cnc(N[C@H]3CC[C@H](N(C)C)CC3)nc21 [Example 245, N-[4-[2-[[4-(Dimethylamino)cyclohexyl]amino]-8-isopropyl-7-oxo-pteridin-6-yl]-2,6-difluoro-phenyl]-1-(4-fluorophenyl)methanesulfonamide]
0.2 nM | Cc1ccc(CS(=O)(=O)Nc2c(F)cc(-c3nc4cnc(N[C@H]5CC[C@H](N(C)C)CC5)nc4n(C(C)C)c3=O)cc2F)cc1 [Example 246, N-[4-[2-[[4-(Dimethylamino)cyclohexyl]amino]-8-isopropyl-7-oxo-pteridin-6-yl]-2,6-difluoro-phenyl]-1-(p-tolyl)methanesulfonamide]
0.1 nM | CC(C)n1c(=O)c(-c2cc(F)c(NS(=O)(=O)Cc3ccccc3)c(F)c2)nc2cnc(N[C@H]3CC[C@H](N(C)C)CC3)nc21 [Example 247, N-[4-[2-[[4-(Dimethylamino)cyclohexyl]amino]-8-isopropyl-7-oxo-pteridin-6-yl]-2,6-difluoro-phenyl]-1-phenyl-methanesulfonamide]
0.2 nM | CC(C)n1c(=O)c(-c2cc(F)c(NS(=O)(=O)CC(F)(F)CC3CC3)c(F)c2)nc2cnc(N[C@H]3CC[C@H](N(C)C)CC3)nc21 [Example 248, 3-Cyclopropyl-N-[4-[2-[[4-(dimethylamino)cyclohexyl]amino]-8-isopropyl-7-oxo-pteridin-6-yl]-2,6-difluoro-phenyl]-2,2-difluoro-propane-1-sulfonamide]
0.2 nM | CC(C)n1c(=O)c(-c2cc(F)c(NS(=O)(=O)CC3CC(F)(F)C3)c(F)c2)nc2cnc(N[C@H]3CC[C@H](N(C)C)CC3)nc21 [Example 249, 1-(3,3-Difluorocyclobutyl)-N-[4-[2-[[4-(dimethylamino)cyclohexyl]amino]-8-isopropyl-7-oxo-pteridin-6-yl]-2,6-difluoro-phenyl]methanesulfonamide]
7 nM | Cc1nc(NS(=O)(=O)CCC(F)(F)F)ccc1-c1nc2cnc(N[C@H]3CC[C@H](N(C)C)CC3)nc2n(C(C)C)c1=O [Example 251, N-[5-[2-[[4-(Dimethylamino)cyclohexyl]amino]-8-isopropyl-7-oxo-pteridin-6-yl]-6-methyl-2-pyridyl]-3,3,3-trifluoro-propane-1-sulfonamide]
1 nM | Cc1nc(NS(=O)(=O)Cc2ccc(F)cc2)ccc1-c1nc2cnc(N[C@H]3CC[C@H](N(C)C)CC3)nc2n(C(C)C)c1=O [Example 252, N-[5-[2-[[4-(Dimethylamino)cyclohexyl]amino]-8-isopropyl-7-oxo-pteridin-6-yl]-6-methyl-2-pyridyl]-1-(4-fluorophenyl)methanesulfonamide]
0.3 nM | Cc1nc(NS(=O)(=O)c2ccccc2F)ccc1-c1nc2cnc(N[C@H]3CC[C@H](N(C)C)CC3)nc2n(C(C)C)c1=O [Example 253, N-[5-[2-[[4-(Dimethylamino)cyclohexyl]amino]-8-isopropyl-7-oxo-pteridin-6-yl]-6-methyl-2-pyridyl]-2-fluoro-benzenesulfonamide]
0.3 nM | Cc1nc(NS(=O)(=O)c2ccccc2Cl)ccc1-c1nc2cnc(N[C@H]3CC[C@H](N(C)C)CC3)nc2n(C(C)C)c1=O [Example 254, N-[5-[2-[[4-(Dimethylamino)cyclohexyl]amino]-8-isopropyl-7-oxo-pteridin-6-yl]-6-methyl-2-pyridyl]-2-chloro-benzenesulfonamide]
0.2 nM | Cc1nc(NS(=O)(=O)c2ccccc2C#N)ccc1-c1nc2cnc(N[C@H]3CC[C@H](N(C)C)CC3)nc2n(C(C)C)c1=O [Example 255, N-[5-[2-[[4-(Dimethylamino)cyclohexyl]amino]-8-isopropyl-7-oxo-pteridin-6-yl]-6-methyl-2-pyridyl]-2-cyano-benzenesulfonamide]
0.3 nM | CC(C)n1c(=O)c(-c2ccc(NS(=O)(=O)CC3CC34CC4)c(F)c2)nc2cnc(N[C@H]3CC[C@H](N(C)C)CC3)nc21 (stereo partly shown) [Example 256, N-[4-[2-[[4-(Dimethylamino)cyclohexyl]amino]-8-isopropyl-7-oxo-pteridin-6-yl]-2-fluoro-phenyl]-1-spiro[2.2]pentan-2-yl-methanesulfonamide]
0.2 nM | CC(C)n1c(=O)c(-c2ccc(NS(=O)(=O)CC3C(F)(F)C34CCC4)c(F)c2)nc2cnc(N[C@H]3CC[C@H](N(C)C)CC3)nc21 (stereo partly shown) [Example 257, 1-(2,2-Difluorospiro[2.3]hexan-1-yl)-N-[4-[2-[[4-(dimethylamino)cyclohexyl]amino]-8-isopropyl-7-oxo-pteridin-6-yl]-2-fluoro-phenyl]methanesulfonamide]
0.2 nM | CC(C)n1c(=O)c(-c2ccc(NS(=O)(=O)CC3(C(C)(F)F)CC3)c(F)c2)nc2cnc(N[C@H]3CC[C@H](N(C)C)CC3)nc21 [Example 258, 1-[1-(1,1-Difluoroethyl)cyclopropyl]-N-[4-[2-[[4-(dimethylamino)cyclohexyl]amino]-8-isopropyl-7-oxo-pteridin-6-yl]-2-fluoro-phenyl]methanesulfonamide]
0.2 nM | CC(C)n1c(=O)c(-c2ccc(NS(=O)(=O)CCC3CC3(F)F)c(F)c2)nc2cnc(N[C@H]3CC[C@H](N(C)C)CC3)nc21 (stereo partly shown) [Example 259, 2-(2,2-Difluorocyclopropyl)-N-[4-[2-[[4-(dimethylamino)cyclohexyl]amino]-8-isopropyl-7-oxo-pteridin-6-yl]-2-fluoro-phenyl]ethanesulfonamide]
0.2 nM | CC(C)n1c(=O)c(-c2ccc(NS(=O)(=O)CC3CC4(CCC4)C3)c(F)c2)nc2cnc(N[C@H]3CC[C@H](N(C)C)CC3)nc21 [Example 260, N-[4-[2-[[4-(Dimethylamino)cyclohexyl]amino]-8-isopropyl-7-oxo-pteridin-6-yl]-2-fluoro-phenyl]-1-spiro[3.3]heptan-2-yl-methanesulfonamide]
0.2 nM | CC(C)n1c(=O)c(-c2ccc(NS(=O)(=O)CC3(C(F)(F)F)CCC3)c(F)c2)nc2cnc(N[C@H]3CC[C@H](N(C)C)CC3)nc21 [Example 261, N-[4-[2-[[4-(Dimethylamino)cyclohexyl]amino]-8-isopropyl-7-oxo-pteridin-6-yl]-2-fluoro-phenyl]-1-[1-(trifluoromethyl)cyclobutyl]methanesulfonamide]
0.3 nM | CC(C)n1c(=O)c(-c2ccc(NS(=O)(=O)CC3CC4(C3)CC4(F)F)c(F)c2)nc2cnc(N[C@H]3CC[C@H](N(C)C)CC3)nc21 (stereo partly shown) [Example 262, 1-(2,2-Difluorospiro[2.3]hexan-5-yl)-N-[4-[2-[[4-(dimethylamino)cyclohexyl]amino]-8-isopropyl-7-oxo-pteridin-6-yl]-2-fluoro-phenyl]methanesulfonamide]
0.2 nM | CC(C)n1c(=O)c(-c2ccc(NS(=O)(=O)CC3CC4C(C3)C4(F)F)c(F)c2)nc2cnc(N[C@H]3CC[C@H](N(C)C)CC3)nc21 (stereo partly shown) [Example 265, 1-(6,6-Difluoro-3-bicyclo[3.1.0]hexanyl)-N-[4-[2-[[4-(dimethylamino)cyclohexyl]amino]-8-isopropyl-7-oxo-pteridin-6-yl]-2-fluorophenyl]methanesulfonamide]
0.2 nM | CC(C)n1c(=O)c(-c2ccc(NS(=O)(=O)CC3(C(F)F)CCCC3)c(F)c2)nc2cnc(N[C@H]3CC[C@H](N(C)C)CC3)nc21 [Example 266, 1-[1-(Difluoromethyl)cyclopentyl]-N-[4-[2-[[4-(dimethylamino)cyclohexyl]amino]-8-isopropyl-7-oxo-pteridin-6-yl]-2-fluoro-phenyl]methanesulfonamide]
